Results: patent US11208403B2, “Pyridone derivatives having tetrahydropyranylmethyl groups” (DAIICHI SANKYO COMPANY, LIMITED, priority 2014, dated 2021)
Where a name gives a salt, the structure may show the parent alone. Read-outs that look alike come from different tables or passages of the source.

Tests used:
[1] = molecular target: T1, human MER (intracellular domain, amino acids 528-999, GST fusion) (Homo sapiens (Human), UniProt Q12866); conditions: read-out: Mer kinase IC50; cell-free, ATP concentration of 1 mM
[2] = Ophthalmic histopathological examination after long-term administration (Test Example 4); type: in vivo, mouse; conditions: female NOG mice (n=8), 100 or 200 mg/kg
Source text: Preparation of dosing Solution:
4. Administration Method:
Four continuous doses, 1 drug holiday, 5 continuous doses, 2 drug holidays, 5 continuous doses, 2 drug holidays, 5 continuous doses, 2 drug holidays, and 4 continuous doses.
5. Pathological Examination
On the day following the termination date of the administration period, the mice were euthanized by blood letting under isoflurane anesthesia. Then, their eyeballs were collected, fixed in Davidson's solutions, then embedded in paraffin, and stained with hematoxylin eosin to prepare preparations, which were then histopathologically examined.

[3] = molecular target: T1, human MER (intracellular domain, amino acids 528-999, GST fusion); assay: biochemical
NIH-3T3-Axl #7 = assay: Antitumor test, NIH-3T3-Axl #7 tumors in NOG mice (Test Example 5); type: in vivo, mouse; conditions: NIH-3T3-Axl #7 in female NOG mice, 5 continuous doses
Source text: (Test Example 5: Antitumor Test)
NIH-3T3-Axl #7 (cells prepared by the transfection of NIH3T3 cells with pLXSN retrovirus having an insert of full-length Axl cDNA) was block-transplanted into female NOG mice.

HCC827 lung cancer cells [4] = assay: In vivo effect of combined use with erlotinib-2, erlotinib-resistant HCC827 tumors (Test Example 8); set-up: species or system mouse
HCC827 lung cancer cells [5] = assay: In vivo effect of combined use with erlotinib, HCC827 subcutaneous tumors (Test Example 6); conditions: HCC827 in nude mice, 50 mg/kg bid in combination with 25 mg/kg erlotinib qd

T1 sequence (Q12866 528-999): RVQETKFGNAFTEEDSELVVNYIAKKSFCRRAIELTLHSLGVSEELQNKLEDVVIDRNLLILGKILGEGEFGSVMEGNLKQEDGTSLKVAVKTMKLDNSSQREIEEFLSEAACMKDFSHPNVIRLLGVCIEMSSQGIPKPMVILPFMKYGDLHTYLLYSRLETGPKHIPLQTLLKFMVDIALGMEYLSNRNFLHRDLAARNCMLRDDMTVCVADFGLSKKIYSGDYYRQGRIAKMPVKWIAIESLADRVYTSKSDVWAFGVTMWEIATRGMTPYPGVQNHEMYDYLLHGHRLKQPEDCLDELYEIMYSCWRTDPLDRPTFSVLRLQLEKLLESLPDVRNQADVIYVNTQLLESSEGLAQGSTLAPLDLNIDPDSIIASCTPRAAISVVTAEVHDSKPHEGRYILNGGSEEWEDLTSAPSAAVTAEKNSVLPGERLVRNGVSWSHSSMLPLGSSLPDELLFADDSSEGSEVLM

Structure (SMILES): COc1cc(-c2cnc(N)c(-c3ccc(NC(=O)c4cn(CC5CCOCC5)cc(-c5ccc(C)cn5)c4=O)nn3)c2)ccc1OC[C@H]1COCCO1 [Example 105]
- IC50 [1]: > 4 µM

Structure (SMILES): COc1cc(-c2cnc(N)c(-c3ccc(NC(=O)c4cn(CC5CCOCC5)cc(-c5ccc(C)cn5)c4=O)cc3F)c2)ccc1OC[C@H]1COCCO1 [Example 124]
- histological change in the retina [2]: No histological change in the retinal

Structure (SMILES): COc1cc(-c2cnc(N)c(-c3ccc(NC(=O)c4cn(CC5(C#N)CCOCC5)cc(-c5ccc(F)cc5)c4=O)cc3)c2)ccc1OC[C@H]1COCCO1.CS(=O)(=O)O [Example 129]
- histological change in the retina [2]: No histological change in the retinal

Structure (SMILES): COc1ccc(-c2cnc(N)c(-c3ccc(NC(=O)c4cn(CC5CCOCC5)cc(-c5ccc(C)cc5)c4=O)cc3)c2)cc1OC [Example 2]
- IC50 [3]: 102 nM

Structure (SMILES): COc1ccc(-c2cnc(N)c(-c3ccc(NC(=O)c4cn(CC5CCOCC5)cc(-c5ccc(OC(F)(F)F)cc5)c4=O)cc3)c2)cc1OC [Example 7]
- IC50 [1]: > 4 µM

Structure (SMILES): COc1cc(-c2cnc(N)c(-c3ccc(NC(=O)c4cn(CC5CCOCC5)cc(-c5ccc(C)cc5)c4=O)cc3)c2)ccc1OC[C@H]1COCCO1.CS(=O)(=O)O [Example 128]
- antitumor effect (NIH-3T3-Axl #7; 3.1 mg/kg oral bid): almost completely inhibited tumor growth
- antitumor effect (NIH-3T3-Axl #7; 12.5 mg/kg oral bid): distinct tumor regression effect
- antitumor effect (NIH-3T3-Axl #7; 50 mg/kg oral bid): distinct tumor regression effect
- histological change in the retina [2]: No histological change in the retinal

Structure (SMILES): COc1cc(-c2cnc(N)c(-c3ccc(NC(=O)c4cn(CC5CCOCC5)cc(-c5ccc(C)cc5)c4=O)cn3)c2)c(OC)nn1 [Example 96]
- IC50 [1]: > 4 µM

Structure (SMILES): COc1cc(-c2cnc(N)c(-c3ccc(NC(=O)c4cn(CC5CCOCC5)cc(-c5ccc(C)cn5)c4=O)cc3F)c2)ccc1OC[C@H]1COCCO1 [Compound B sulfate hydrate]
- growth inhibition of erlotinib-resistant tumor (HCC827 lung cancer cells [4]; group 2: 50 mg/kg bid + 25 mg/kg erlotinib qd): distinct growth inhibitory effect of erlotinib was confirmed
- estimated tumor volume of erlotinib-resistant tumor (HCC827 lung cancer cells [4]; group 2: 50 mg/kg bid + 25 mg/kg erlotinib qd, 116 to 140 days after transplantation): maintained even at 140 days after transplantation
- growth inhibition of erlotinib-resistant tumor (HCC827 lung cancer cells [4]; group 3: 25 mg/kg bid + 25 mg/kg erlotinib qd): distinct growth inhibitory effect of erlotinib was confirmed
- body weight change (HCC827 lung cancer cells [5]): No significant weight loss
- tumor size relative to start of administration (estimated tumor volume) (HCC827 lung cancer cells [5]): did not reach that at the start of administration even at Day 107

Structure (SMILES): COc1cc(-c2cnc(N)c(-c3ccc(NC(=O)c4cn(CC5CCOCC5)cc(-c5ccc(C)cc5)c4=O)nn3)c2)ccc1OCCN1CCOCC1 [Example 110, N-[6-(2-Amino-5-{3-methoxy-4-[2-(morpholin-4-yl)ethoxy]phenyl}pyridin-3-yl)pyridazin-3-yl]-5-(4-methylphenyl)-4-oxo-1-(tetrahydro-2H-pyran-4-ylmethyl)-1,4-dihydropyridine-3-carboxamide]
- IC50 [1]: > 4 µM

Structure (SMILES): Cc1ccc(-c2cn(CC3CCOCC3)cc(C(=O)Nc3ccc(-c4cc(-c5cnn(C[C@H]6COCCO6)c5)cnc4N)nn3)c2=O)cc1 [Example 108]
- IC50 [1]: > 4 µM

Structure (SMILES): Cc1ccc(-c2cn(CC3CCOCC3)cc(C(=O)Nc3ccc(-c4cc(-c5cnn(CC6CCOCC6)c5)cnc4N)nn3)c2=O)cc1 [Example 102]
- IC50 [1]: > 4 µM

Structure (SMILES): COc1cc(-c2cnc(N)c(-c3ccc(NC(=O)c4cn(CC5CCOCC5)cc(-c5ccc(C)s5)c4=O)nn3)c2)ccc1OC[C@H]1COCCO1 [Example 106]
- IC50 [1]: > 4 µM

Structure (SMILES): COc1ccc(-c2cnc(N)c(-c3ccc(NC(=O)c4cn(CC(F)(F)F)cc(-c5ccc(F)cc5)c4=O)cc3)c2)cc1OC [Compound A, reference compound]
- antitumor effect (NIH-3T3-Axl #7; 4.2 mg/kg oral bid): distinct tumor regression effect
- antitumor effect (NIH-3T3-Axl #7; 25 mg/kg oral bid): distinct tumor regression effect

Structure (SMILES): COc1ccc(-c2cnc(N)c(-c3cnc(NC(=O)c4cn(CC5CCOCC5)cc(-c5ccc(C)cc5)c4=O)cn3)c2)cc1OC [Example 112, N-{5-[2-Amino-5-(3,4-dimethoxyphenyl)pyridin-3-yl]pyrazin-2-yl}-5-(4-methylphenyl)-4-oxo-1-(tetrahydro-2H-pyran-4-ylmethyl)-1,4-dihydropyridine-3-carboxamide]
- IC50 [3]: > 4000 nM

Structure (SMILES): Cc1ccc(-c2cn(CC3CCOCC3)cc(C(=O)Nc3ccc(-c4cc(-c5cnn(C6CCOCC6)c5)cnc4N)nn3)c2=O)cc1 [Example 109]
- IC50 [1]: > 4 µM

Structure (SMILES): COc1ccc(-c2cnc(N)c(-c3ccc(NC(=O)c4cn(CC5CCOCC5)cc(-c5ccc(C)cn5)c4=O)nn3)c2)cc1OC [Example 103]
- IC50 [1]: > 4 µM

Structure (SMILES): Cc1ccc(-c2cn(CC3CCOCC3)cc(C(=O)Nc3ccc(-c4cc(-c5cc(C)nc(C)c5)cnc4N)nc3)c2=O)cc1 [Example 89]
- IC50 [1]: > 4 µM
